Experimental findings from patent US20110212176A1, “CICLOPIROX AND CYTARABINE FOR THE TREATMENT OF LEUKEMIC DISORDERS” (priority 2008, published 2011) are described below.

Molecules are shown by their SMILES. Entries after “also recorded” stand apart in the source; their conditions may differ.

For assay [1], the system named is OCI-AML2, K562 human leukemia cells and MDAY-D2 murine leukemia cells. Format: in vivo. As to conditions: CPX 25 mg/kg daily by oral gavage; all 3 mouse models. On the procedure:
MDAY-D2 (MDAY) murine leukemia cells (5×10^5) were injected intra-peritoneal into NOD/SCID mice (Ontario Cancer Institute, Toronto, ON), OCI-AML2 and K562 cells (2×10^6) were injected subcutaneously into both flanks of sub-lethally irradiated (3.5 Gy) NOD/SCID mice. Mice were then treated daily by oral gavages with CPX (25 mg/kg) in PBS or vehicle control. Tumour volume (tumour length×width^2×0.5236) (Mol Cancer Ther. 2004; 3:1239-1248) was measured weekly using calipers. Eight (MDAY-D2), 11 (OCI-AML2) or 30 (K562) days after injection of cells, mice were sacrificed, and the volume and weight of the tumours was measured. All animal studies were carried out according to the regulations of the Canadian Council on Animal Care and with the approval of the local ethics review board.
Given the effects in leukemia cells lines, the effects of oral CPX was evaluated in 3 mouse models of leukemia. Sublethally irradiated NOD-SCID mice were injected subcutaneously with OCI-AML2 or K562 human leukemia cells or intraperitoneally with MDAY-D2 murine leukemia cells. […].

Assay [2] has as its system HeLa, PPC-1 and MDAY-D2 cells. Kind of assay: Cell cycle analysis by PI staining and flow cytometry. Format: cell-based. As to conditions: 5 μM CPX; eighteen hours; prior to the onset of cell death. On the procedure:
(§1) FIG. 5: Cell cycle arrest, survivin decrease and p53 increase precede CPX induced cell death. A) HeLa, PPC-1 and MDAY-D2 cells were treated with 5 μM CPX or buffer control. Eighteen hours after incubation, cell cycle was analyzed by PI staining and Flow cytometry. B) NB4 and OCI-M2 cell lines were incubated with CPX (5 μM) for 48 hours. After incubation cells were harvested and nuclear proteins were isolated. Levels of p53 and the nuclear protein glucocorticoid receptor (GR) were measured by immunoblotting. C) Solid tumor (OVCAR3, HT-29, HepG2, DU145, HeLa) and leukemia (OCI-M2, OCI-AML2, NB4, HL-6) cell lines were treated with CPX (2.5 μM) or buffer control for 48 hours. After incubation, total protein was isolated. Levels of survivin and GAPDH were measured by immunoblotting.
Cell-cycle analysis was performed as previously described (Blood 112(3):760). Briefly, cells were harvested, washed with cold PBS, re-suspended in 70% cold ethanol, and incubated overnight at −20° C. Cells were then treated with 100 ng/mL of DNase-free RNase (Invitrogen, Carlsbad, Calif.) at 37° C. for 30 minutes, washed with cold PBS, and re-suspended in PBS with 50 μg/mL of PI (Sigma). DNA content was analyzed by flow cytometry (FACSCalibur; BD Biosciences, San Jose, Calif.).

The next assay relates to survivin promoter. Briefly: Survivin promoter luciferase reporter screen in HeLa cells. Format: cell-based, human. As to conditions: 5 μM, 24 hours. The text has this: The full-length survivin promoter (−1059 upstream of the initiating ATG) (NIEHS-SNPs, Environmental Genome Project, NIEHS ES15478, Department of Genome Sciences, Seattle, Wash.) was isolated from HeLa genomic DNA using the forward primer 5′-[…]-3′ (SEQ ID NO:1) and the reverse primer 5′-[…]-3′ (SEQ ID NO:2).
The promoter was sub-cloned into the GL4.20 firefly luciferase reporter vector (Promega Corporation, Madison, Wis.). Clones were sequence-verified for orientation and integrity using a CEQ 8000 Genetic Analysis System (Beckman, Mississauga, ON, Canada). […]
(A) HeLa cells stably overexpressing the survivin promoter driving luciferase (15000 cells/well) were plated in 96-well plates. […] After incubation, survivin promoter activity was assessed by the luciferase assay described below. […]
Luciferase activity was measured according to the manufacturer's instructions and as previously described (Promega, Madison, Wis.) (Mao Blood). […] After 10-minutes incubation, an equal volume of Bright-Glo Luciferase substrate (Promega) was added, and the luminescence signal was detected with a 96-well Luminoskan luminescence plate reader (Thermo Fisher Scientific, Waltham, Mass.) with 5-seconds integration time. […]

The test system of another assay is leukemia cell lines. Briefly: MTS cell viability assay in leukemia/lymphoma cell lines. As to conditions: increasing concentrations, 72 hours. Format: cell-based. On the procedure:
Leukemia (HL-60, RSV411, k562, Jurkat, U937), LYMPHOMA (MDAY-D2), solid tumour cell lines (PPC-1, HeLa, OVCAR-3, DU-145, HT-29) and GMO5757 human lung fibroblasts were cultured in RPMI 1640 medium. HepG2 hepatoma cells and MRC5 human lung fibroblasts were grown in Dulbecco modified Eagle medium. OCI-M2, OCI-AML2 and NB4 leukemia cell lines and OPM2, KMS11, LP1, UTMC2, KSM18 and OCIMy5 myeloma cell lines were maintained in Iscove Modified Dulbecco Medium. LF1 human lung fibroblasts were maintained in HAM medium. All media were supplemented with 10% fetal calf serum, 100 μg/mL of penicillin, and 100 units/mL of streptomycin (all from Hyclone, Logan, Utah). The cells were incubated at 37° C. in a humidified air atmosphere supplemented with 5% CO2.
The CellTiter96 aqueous nonradioactive (MTS) assay was used to measure cell viability according to the manufacturer's instructions (Promega). Propidium iodide (PI) staining was used according to manufacturer's instructions (Biovision, Mountain view, Calif.).
From this chemical screen, the antimicrobial CPX was identified. CPX is currently used for the topical treatment of cutaneous fungal infections. As an anti-fungal agent, the mechanism of action of CPX is not well understood, but appears related to binding intracellular iron and inhibiting iron containing enzymes. […] 72 hours after incubation, cell viability was measured by the MTS assay. […]
A general note: Tetrazolium assays rely on reduction of a dye to a coloured formazan, in cell work by metabolically active cells.

For assay [3], the system named is survivin, Cyclin D1, YY1 and FTII-D. Briefly: Immunoblotting of protein expression after CPX treatment. Format: cell-based. As to conditions: prior to the onset of cell death. How it is done:
as §1
Total cell lysates were prepared from cells. […] Protein concentrations were measured by the Bradford assay (Anal Biochem. 1996; 236:221-228). […]
Membranes were probed with polyclonal rabbit anti-human survivin (1 μg/mL) (NOVUS), monoclonal mouse anti-human p53 (0.5 μg/mL), polyclonal rabbit anti-human GR (0.5 μg/mL) both from (Santa Cruz Biotechnologies, CA), or with mouse anti-human GADPH (Trevigen, Gaithersburg, Md.). […] Detection was performed by the enhanced chemical luminescence method (Pierce, Rockford, Ill.).

`Cc1cc(C2CCCCC2)n(O)c(=O)c1` [CPX, 6-Cyclohexyl-1-hydroxy-4-methyl-2(1H)-pyridone]: in assay [1], the “decrease in tumor volume compared to control” value is on record as “up to 65%” and the “decrease in tumor weight compared to control” value was “up to 65%”. Besides, the cell cycle effect entry in assay [2] is “arrested cells in the G1/S phase of the cell cycle”. Also, the “inhibition of survivin transactivation (luciferase expression)” value with survivin promoter is reported as “inhibitor of survivin transactivation”. For the same molecule, the “effect on cell viability” value with leukemia cell lines is “decreased cell viability in all leukemia cell lines tested; also recorded: decreased cell viability in all leukemia and lymphoma cell lines”. In addition, in assay [3], the “effect on protein expression” value was “down-regulated the expression of survivin, Cyclin D1, and the transcription factors YY1 and FTII-D”.
